Measured values reported in patent US6696484B2, “Method and compositions for regulation of 5-alpha reductase activity” (University of Chicago Office of Technology and Intellectual …, priority 1997, dated 2004).
Several values for one entry are separate records, joined by “and”; a condition that tells them apart may be missing. Equal entries are not always repeated. Where two headings read alike, the source gives them in different places.

Legend:
hamster flank organ [1] = experiment: Testosterone-stimulated growth of the pigmented macules of hamster flank organs; format: in vivo, Syrian golden hamsters; details: for Pigmented macule area / Pigmented macule area, androgen alone (control) / Inhibition (percent decrease in macule area vs androgen-treated macules): 18 days; for Pigmented macule area / Pigmented macule area, androgen alone (control): mean±SEM; for Pigmented macule area, androgen alone (control): 0.5 μg testosterone alone topically daily;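 on all read-outs here: prepubertal Syrian golden hamsters castrated at 4 weeks, ethanol vehicle on one flank organ, macule long and short axes gauged by caliper 1 day after final dose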
5α-reductase [2] = details: Liao and Hiipakka 1995, cited from earlier work; for activity against 5α-reductase, in vitro enzyme assay: at 200 μM; for IC50: read-out: IC50, 5α-reductase, in vitro enzyme assay
5α-reductase [3] = experiment: Whole-cell 5α-reductase assay, isozyme not given; format: cell-based, human; details: isozyme not stated
Excerpt: Intact cells containing 5α-reductase, their microsomes, or nuclear preparations can also be used to screen 5α-reductase inhibitors.

[4] = target: T1, type 2 human 5α-reductase (Homo sapiens, UniProt P31213); experiment: Whole-cell assay of 5α-reductase, type 2; format: cell-based; parameters: expressed in transfected cells; host or cells: rat 1A cells infected with pMV7 retrovirus and selected with G418; intact cells for the whole-cell assay; details: read-out: percent inhibition of 5α-reductase activity, whole-cell assay, Type 2; 100 μM compound
T1 sequence (P31213 1-254): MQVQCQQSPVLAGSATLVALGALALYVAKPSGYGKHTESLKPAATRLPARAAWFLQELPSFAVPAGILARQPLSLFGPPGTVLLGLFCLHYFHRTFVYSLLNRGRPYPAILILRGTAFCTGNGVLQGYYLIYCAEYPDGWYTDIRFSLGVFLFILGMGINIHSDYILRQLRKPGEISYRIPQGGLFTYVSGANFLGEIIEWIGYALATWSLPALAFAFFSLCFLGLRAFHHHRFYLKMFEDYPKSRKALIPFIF

5α-reductase [5] = experiment: Cell-free 5α-reductase assay, isozyme not given; format: biochemical, human; details: isozyme not stated
[6] = target: T2, 5α-reductase type 2 isozyme (Homo sapiens, UniProt P31213); details: cited from earlier work
T2 sequence (P31213 1-254): T1 sequence (P31213 1-254)

[7] = target: T3, 5α-reductase type 1 isozyme (Homo sapiens, UniProt P18405); details: read-out: Km for testosterone, type 1 isozyme; background statement; cited from earlier work
T3 sequence (P18405 1-259): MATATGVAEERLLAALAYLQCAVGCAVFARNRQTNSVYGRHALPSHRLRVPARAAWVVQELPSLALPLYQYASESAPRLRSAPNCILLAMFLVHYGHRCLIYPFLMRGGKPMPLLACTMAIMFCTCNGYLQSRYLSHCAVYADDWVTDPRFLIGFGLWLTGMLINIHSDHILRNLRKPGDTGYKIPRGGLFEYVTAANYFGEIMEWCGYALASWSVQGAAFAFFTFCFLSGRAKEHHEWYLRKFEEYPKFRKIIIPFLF

LNCaP 104-R2 tumors = experiment: Growth of LNCaP 104-R2 tumors in castrated male nude mice; format: in vivo, BALB/c athymic (nude) mice; details: finasteride (2.5 mg) pellets at 7th week in mice with TP since 4th week, from 84±15 (SE) mm^3
MCF-7 tumors = experiment: Growth of MCF-7 tumors in female nude mice; format: in vivo, BALB/c athymic (nude) mice
LNCaP 104-S tumors = experiment: Growth of LNCaP 104-S tumors in nude mice; format: in vivo, BALB/c athymic (nude) mice; details: finasteride treatment, normal nude mice, within 4 weeks
[8] = Stability (half-life, oxidation or hydrolysis) in culture medium, buffers and solutions; format: physicochemical
Excerpt: These green tea catechins had little inhibitory activity against 5α-reductase in whole cells. The lack of activity in whole cells may be due to an inability of these catechins to cross the cell membrane or to enzymatic or non-enzymatic changes in the structure of these catechins in assays using whole-cell cultures.
Active 5α-reductase inhibitors shown in Tables 1-7 are polyphenols or their derivatives and are easily oxidized or hydrolyzed within several hours to several days, especially in the presence of air or oxygen and at a pH above 7.0. […] More than 80% of the oxidation of hydrolysis can be prevented by the addition of an inorganic acid, such as hydrochloric acid, sulfuric acid, or phosphoric acid, or an organic acid, such as citric acid or acetic acid.

[9] = target: T4, type 1 human 5α-reductase (Homo sapiens, UniProt P18405); experiment: Cell-free enzymatic assay of 5α-reductase (testosterone to DHT), type 1
T4 sequence (P18405 1-259): T3 sequence (P18405 1-259)

hamster flank organ [10] = experiment: DHT-stimulated growth of the pigmented macules of hamster flank organs; format: in vivo, Syrian golden hamsters; details: 0.5 μg DHT + 1 mg compound topically daily, 18 days; for Pigmented macule area: mean±SEM
Description: Prepubertal male Syrian golden hamsters, castrated at 4 weeks of age, were obtained from Harlan Sprague-Dawley Co. (Madison, Wis.). Bilateral orchiectomy was performed under anesthesia. The hamsters were housed individually in plastic cages and had free access to Purina rodent chow and water, and were maintained on a 12-h light/12-h dark cycle. Hamsters were used 1-2 weeks after castration and were divided into groups of 4-6 or 9-11 animals. Hair on the lower back of each animal was shaved weekly with an electric hair clipper to expose the flank organs. A treatment solution (5 μl with ethanol as vehicle) was applied topically to the flank organ once a day using a Pipetteman and a polypropylene disposable tip. The treatment solution contained either (a) ethanol alone, (b) an androgen (testosterone or DHT), (c) a test compound, or (d) a combination of an androgen and a test compound. For each hamster, one flank organ was treated while the other organ was not treated. The surface of the flank organ was wiped with an alcohol pad to remove residual compound before each treatment. At the end of each experiment (18 days), animals were killed by CO2 asphyxiation or an intraperitoneal injection of […]. Flank organs from both the treated and untreated sides were examined 1 day after the last treatment by the methods described below. The body weight of each animal was recorded before and after treatment. Experiments were repeated at least twice to assure reproducibility. The “Guide for the care and use of laboratory animals” (NIH publication no. 85-28, revised 1988) and the regulations of the U.S. Department of Agriculture were followed throughout the experiments.
In this study, the growth of the flank organ was determined by measuring the length of the long axis and the short axis of the pigmented spot (pigmented macule) with a caliper with a digital display (Digimatic; Mitutoyo Corporation, Japan). The surface area (in millimeters squared) of the spot was calculated as the product of the long axis and the short axis (Gomez and Frost 1975). The areas of the pigmented spots after treatment with ethanol alone or with test compound (in ethanol) alone were less than 10% of the areas of the pigmented spots after treatment with testosterone alone. These values were deducted from the experimental values and are compared in Tables 8-10. For each experiment, the means and standard error of the means (SEM) of the areas of the untreated and treated macules were computed separately for each treatment group. Within each experiment, an overall F-test (one way ANOVA) was used to test the null hypothesis that the mean sizes of the treated macules were the same in all groups, and Dunnett's multiple range test was used to examine differences between the treatment groups (i.e., green tea catechin+androgen, fatty acid+androgen, EGC derivative+androgen, or fatty acid derivative+androgen) and the control group (androgen treatment only). The Mann-Whitney test was used to examine differences between DHT-treated and the DHT and EGCG-treated groups. P-values <0.05 were taken as indicating statistical significance in all tests (Hochberg and Tamhane 1987).
Each group comprised four to six castrated male hamsters. At the end of the treatment period, the areas of the pigmented macules were determined and are presented as means±SEM in Table 8.
Each group comprised four to six castrated male hamsters. At the end of the treatment period, the areas of the pigmented macules were determined and are expressed as means±SEM as shown in Table 10.

[11] = target: T1, type 2 human 5α-reductase; experiment: Cell-free enzymatic assay of 5α-reductase (testosterone to DHT), type 2; format: biochemical; parameters: expressed in transfected cells; host or cells: rat 1A cells infected with pMV7 retrovirus and selected with G418; microsomes for the cell-free assay
5α-reductase [12] = experiment: In vitro enzyme assay of 5α-reductase referred to in the discussion; format: biochemical; details: Hiipakka and Liao, unpublished results
[13] = 0.5 μg testosterone + 1 mg compound topically daily, castrated male hamsters
[14] = 0.5 μg testosterone + 1 mg compound topically daily
[15] = 0.5 μg testosterone + 2 mg compound topically daily
[16] = cell-free assay, double-reciprocal plots

Oc1cc(O)c2c(c1)O[C@H](c1cc(O)c(O)c(O)c1)[C@H](O)C2 [EGC, epigallocatechin]
Pigmented macule area (hamster flank organ [1]; [13]): 10.75 ± 0.87 mm^2 and 5.50 ± 0.65 mm^2 | activity against 5α-reductase, in vitro enzyme assay (5α-reductase [2]): not active

Oc1cccc(O)c1O [Pyrogallol, 1,2,3-trihydroxybenzene]
inhibitory activity in the whole-cell assay (5α-reductase [3]): weak inhibitory activity | inhibition at 100 µM [4]: 15% | inhibitory activity in the cell-free assay (5α-reductase [5]): weak inhibitory activity

C[C@]12CC[C@H]3[C@@H](CCC4=CC(=O)CC[C@@]43C)[C@@H]1CC[C@@H]2O [T, testosterone, reference compound]
Km ([6]; read-out: Km for testosterone, type 2 isozyme, background statement): < 10 nM | Pigmented macule area, androgen alone (control) (hamster flank organ [1]): 13.83 ± 1.43 mm^2 and 17.40 ± 1.93 mm^2 and 18.65 ± 0.69 mm^2 | Pigmented macule area, androgen alone (control) (hamster flank organ [1]; listed as testosterone): 15-20 mm^2 | stimulation of flank organ growth relative to the maximum stimulation (hamster flank organ [1]; 0.5 μg testosterone per flank organ per day): 50-70% | Km [7]: > 1000 nM

CCCCC/C=C\C/C=C\C/C=C\CCCCC(=O)O[C@H]1CC[C@@]2(C)C(=CC[C@H]3[C@@H]4CC[C@H]([C@H](C)CCCC(C)C)[C@@]4(C)CC[C@@H]32)C1 [cholesterol ester of γ-linolenic acid]
IC50 (5α-reductase [3]): > 100 µM | inhibitory activity in the whole-cell assay (5α-reductase [3]): little activity | IC50 (5α-reductase [5]): > 100 µM

Oc1ccccc1O [Catechol, 1,2-dihydroxybenzene]
inhibitory activity in the whole-cell assay (5α-reductase [3]): weak inhibitory activity | inhibitory activity in the cell-free assay (5α-reductase [5]): weak inhibitory activity

CC(C)(C)NC(=O)[C@H]1CC[C@H]2[C@@H]3CC[C@H]4NC(=O)C=C[C@]4(C)[C@H]3CC[C@]12C [Finasteride]
LNCaP 104-R2 tumor size within 4 weeks after finasteride implantation (LNCaP 104-R2 tumors): 593±144 mm^3 | affinity for isozyme 2 relative to isozyme 1 ([6]; competitive inhibitor, Russell and Wilson, 1994): 30 fold | effect on growth of MCF-7 tumors (MCF-7 tumors): did not affect | reduction of LNCaP 104-S tumor size (LNCaP 104-S tumors): 45%

O=C(O[C@@H]1Cc2c(O)cc(O)cc2O[C@@H]1c1cc(O)c(O)c(O)c1)c1cc(O)c(O)c(O)c1 [EGCG, epigallocatechin gallate]
half-life in culture medium ([8]; culture medium used for whole-cell assays (pH 7.5), mean±SEM, N=3): 9.5 ± 0.5 min | difference in stability, phosphate buffer vs culture medium ([8]; pH 7.0 vs pH 7.5): 8 fold | half-life in phosphate buffered saline ([8]; pH 7.5): 21.2 ± 2.0 min | half-life in phosphate buffer ([8]; phosphate buffer used for cell-free assays (pH 7.0), mean±SEM, N=3): 74.7 ± 6.4 min | Inhibition (percent decrease in macule area vs androgen-treated macules) (hamster flank organ [1]; [14]): 40% and 64% | Pigmented macule area (hamster flank organ [1]; [13]): 8.25 ± 1.43 mm^2 and 6.25 ± 0.82 mm^2 | Inhibition (percent decrease in macule area vs androgen-treated macules) (hamster flank organ [1]; [15]): 60% | Pigmented macule area (hamster flank organ [1]; [15]): 5.62 ± 0.75 mm^2 | reversibility of inhibition after pelleting and resuspending microsomes ([9]; 100 μM EGCG): could not be reversed | mode of inhibition with respect to the substrate NADPH [9, 16]: competitive inhibitor | mode of inhibition with respect to the substrate testosterone [9, 16]: non-competitive inhibitor | IC50 (5α-reductase [2]): 10 to 20 µM | Inhibition (percent decrease in macule area vs androgen-treated macules) (hamster flank organ [10]): 97% | Pigmented macule area (hamster flank organ [10]): 0.50 ± 0.26 mm^2

O=C(O)c1cc(O)c(O)c(O)c1 [gallic acid, 3,4,5-trihydroxybenzoic acid]
inhibitory activity in the whole-cell assay (5α-reductase [3]): weak inhibitory activity | inhibitory activity in the cell-free assay (5α-reductase [5]): weak inhibitory activity

O=C(O[C@@H]1Cc2c(O)cc(O)cc2O[C@@H]1c1ccc(O)c(O)c1)c1cc(O)c(O)c(O)c1 [ECG, epicatechin gallate]
IC50 [11]: 69 µM | Inhibition (percent decrease in macule area vs androgen-treated macules) (hamster flank organ [1]; [14]): 59% | Pigmented macule area (hamster flank organ [1]; [13]): 5.75 ± 0.57 mm^2 | IC50 (5α-reductase [2]): 10 to 20 µM

O=C1c2ccccc2C(=O)c2c1ccc(O)c2O [Alizarin]
Inhibition (percent decrease in macule area vs androgen-treated macules) (hamster flank organ [1]; [14]): 87% | Pigmented macule area (hamster flank organ [1]; [13]): 2.40 ± 0.47 mm^2 | IC50 (5α-reductase [12]): 5 to 10 µM | Inhibition (percent decrease in macule area vs androgen-treated macules) (hamster flank organ [10]): 27% | Pigmented macule area (hamster flank organ [10]): 10.00 ± 0.43 mm^2

Oc1cc(O)c2c(c1)O[C@H](c1ccc(O)c(O)c1)[C@H](O)C2 [EC, epicatechin]
Inhibition (percent decrease in macule area vs androgen-treated macules) (hamster flank organ [1]; [14]): 37% | Pigmented macule area (hamster flank organ [1]; [13]): 8.67 ± 1.08 mm^2 | activity against 5α-reductase, in vitro enzyme assay (5α-reductase [2]): not active

CCCCC/C=C\C/C=C\C/C=C\CCCCC(=O)OC [Methyl ester of γ-linolenic acid]
IC50 (5α-reductase [3]): > 100 µM | inhibitory activity in the whole-cell assay (5α-reductase [3]): little activity | IC50 (5α-reductase [5]): > 100 µM
